Laboratory results: US12162890B2 (Novartis AG, priority 2015, dated 2024)

Molecular target: HEK293 cells with stable expression of the GRIN1 gene and tetracycline-inducible expression of the GRIN2B gene (NMDA receptor, NR2B) (Homo sapiens, UniProt Q13224)
Assay: Fluo-8 Ca2+ flux assay: reversal of Ro 25-6981-mediated suppression of the Ca2+ response to co-agonist (glutamate/glycine); note: test concentration or dose not given here
Assay type: cell-based
Conditions: reversal of the Ro 25-6981 suppression of the Ca2+ response to co-agonist (glutamate/glycine)

Chain of HEK293 cells with stable expression of the GRIN1 gene and tetracycline-inducible expression of the GRIN2B gene (NMDA receptor, NR2B) (Q13224 27-1484, other chains not shown): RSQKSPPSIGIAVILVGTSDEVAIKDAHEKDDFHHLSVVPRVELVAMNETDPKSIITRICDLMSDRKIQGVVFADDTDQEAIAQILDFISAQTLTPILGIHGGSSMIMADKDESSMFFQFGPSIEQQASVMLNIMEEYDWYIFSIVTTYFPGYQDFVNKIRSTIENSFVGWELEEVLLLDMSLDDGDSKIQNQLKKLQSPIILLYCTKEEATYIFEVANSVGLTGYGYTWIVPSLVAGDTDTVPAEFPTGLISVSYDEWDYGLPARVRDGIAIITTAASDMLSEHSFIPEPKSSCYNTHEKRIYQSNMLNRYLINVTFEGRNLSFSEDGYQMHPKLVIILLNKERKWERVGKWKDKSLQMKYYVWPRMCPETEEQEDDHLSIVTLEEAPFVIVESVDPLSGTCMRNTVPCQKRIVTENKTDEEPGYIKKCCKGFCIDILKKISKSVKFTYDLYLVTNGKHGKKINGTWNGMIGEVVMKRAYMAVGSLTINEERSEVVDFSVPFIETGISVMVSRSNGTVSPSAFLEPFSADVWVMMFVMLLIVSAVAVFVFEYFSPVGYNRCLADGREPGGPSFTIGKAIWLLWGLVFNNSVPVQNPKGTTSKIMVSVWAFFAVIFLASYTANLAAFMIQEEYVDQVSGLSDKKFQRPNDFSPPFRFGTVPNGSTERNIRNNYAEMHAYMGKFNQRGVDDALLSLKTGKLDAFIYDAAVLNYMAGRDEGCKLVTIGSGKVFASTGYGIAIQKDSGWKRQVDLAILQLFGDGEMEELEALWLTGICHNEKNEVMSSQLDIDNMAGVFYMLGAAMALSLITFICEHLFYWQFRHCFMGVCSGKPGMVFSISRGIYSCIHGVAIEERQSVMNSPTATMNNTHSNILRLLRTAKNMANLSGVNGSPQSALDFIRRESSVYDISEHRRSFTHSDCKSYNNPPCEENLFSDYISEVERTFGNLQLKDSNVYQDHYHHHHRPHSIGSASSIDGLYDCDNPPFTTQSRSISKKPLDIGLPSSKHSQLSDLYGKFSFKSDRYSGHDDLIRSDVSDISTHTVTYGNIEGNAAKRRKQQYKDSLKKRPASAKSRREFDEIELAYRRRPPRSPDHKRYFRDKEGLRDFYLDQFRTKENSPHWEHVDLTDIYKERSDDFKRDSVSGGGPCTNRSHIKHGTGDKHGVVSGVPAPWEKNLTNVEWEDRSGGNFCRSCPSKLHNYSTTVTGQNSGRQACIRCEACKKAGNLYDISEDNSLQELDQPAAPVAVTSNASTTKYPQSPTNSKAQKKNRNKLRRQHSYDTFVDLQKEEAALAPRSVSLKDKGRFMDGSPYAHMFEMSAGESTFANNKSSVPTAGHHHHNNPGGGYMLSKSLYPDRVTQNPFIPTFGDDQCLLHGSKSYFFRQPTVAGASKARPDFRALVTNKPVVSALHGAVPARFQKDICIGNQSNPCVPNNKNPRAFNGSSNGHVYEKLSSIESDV

| Compound | Response Recovered (%) |
| --- | --- |
| O=C(Cn1cc(-c2ccccc2)c2scc(-c3ccc(F)c(C(F)(F)F)c3)c2c1=O)N1CCCC1 [Example 104, 3-(4-fluoro-3-(trifluoromethyl)phenyl)-5-(2-oxo-2-(pyrrolidin-1-yl)ethyl)-7-phenylthieno[3,2-c]pyridin-4(5H)-one] | 22% |
| CC1(F)CN(C(=O)Cn2ccc3c(c(-c4ccc(Cl)c(Cl)c4)cn3C3CC3)c2=O)C1 [Example 288, 1-cyclopropyl-3-(3,4-dichlorophenyl)-5-(2-(3-fluoro-3-methylazetidin-1-yl)-2-oxoethyl)-1H-pyrrolo[3,2-c]pyridin-4(5H)one] | 130% |
| O=C(Cn1cnc2[nH]cc(-c3ccc(F)c(Cl)c3)c2c1=O)N1CCCC1 [Example 156, 5-(3-chloro-4-fluorophenyl)-3-(2-oxo-2-(pyrrolidin-1-yl)ethyl)-3H-pyrrolo[2,3-d]pyrimidin-4(7H)-one] | 36% |
| O=C(Cn1ccc2scc(-c3cnc(F)c(F)c3)c2c1=O)N1CC(F)(CF)C1 [Example 144, 3-(5,6-difluoropyridin-3-yl)-5-(2-(3-fluoro-3-(fluoromethyl)azetidin-1-yl)-2-oxoethyl)thieno[3,2-c]pyridin-4(5H)-one] | 9.8% |
| CC1(F)CN(C(=O)Cn2ccc3scc(-c4ccc(Cl)c(Cl)c4)c3c2=O)C1 [Example 42, 3-(3,4-dichlorophenyl)-5-(2-(3-fluoro-3-methylazetidin-1-yl)-2-oxoethyl)thieno[3,2-c]pyridin-4(5H)-one] | 150% |
| O=C(Cn1ccc2scc(-c3cnc(F)c(Cl)c3)c2c1=O)N1CC(F)C(F)C1 (stereo not drawn) [Example 38, 3-(5-chloro-6-fluoropyrridin-3-yl)-5-(2-(3,4-difluoropyrrolidin-1-yl)-2-oxoethyl)thieno[3,2-c]pyridin-4(5H)-one] | 18% |
| O=C(Cn1cnc2c(c(-c3ccc(Cl)c(F)c3)cn2CCF)c1=O)N1CCCC1 [Example 173, 5-(4-chloro-3-fluorophenyl)-7-(2-fluoroethyl)-3-(2-oxo-2-(pyrrolidin-1-yl)ethyl)-3H-pyrrolo[2,3-d]pyrimidin-4(7H)-one] | 32% |
| CC1(N)CN(C(=O)Cn2ccc3scc(-c4ccc(F)c(C(F)(F)F)c4)c3c2=O)C1 [Example 96, 5-(2-(3-amino-3-methylazetidin-1-yl)-2-oxoethyl)-3-(4-fluoro-3-(trifluoromethyl)phenyl)thieno[3,2-c]pyridin-4(5H)-one] | 43% |
| CCC1(F)CN(C(=O)Cn2ccc3scc(-c4cncc(Cl)n4)c3c2=O)C1 [Example 147, 3-(6-chloropyrazin-2-yl)-5-(2-(3-ethyl-3-fluoroazetidin-1-yl)-2-oxoethyl)thieno[3,2-c]pyridin-4(5H)-one] | −0.39% |
| O=C(Cn1ccc2scc(-c3ccc(Cl)c(Cl)c3)c2c1=O)N1CC(F)(c2ccccc2)C1 [Example 53, 3-(3,4-dichlorophenyl)-5-(2-(3-fluoro-3-phenylazetidin-1-yl)-2-oxoethyl)thieno[3,2-c]pyridin-4(5H)-one] | 24% |
| CN(C)CCn1cc(-c2ccc(F)c(C(F)(F)F)c2)c2c(=O)n(CC(=O)N3CCC(F)C3)ccc21 (stereo not drawn) [Example 240] | 29% |
| O=C(Cn1ccc2scc(-c3ccc(F)c(Cl)c3)c2c1=O)N1CC(F)(CF)C1 [Example 81, 3-(3-chloro-4-fluorophenyl)-5-(2-(3-fluoro-3-(fluoromethyl)azetidin-1-yl)-2-oxoethyl)thieno[3,2-c]pyridin-4(5H)-one] | 140% |
| CC1(F)CN(C(=O)Cn2ccc3c(c(-c4cnc(Cl)c(Cl)c4)cn3C3CC3)c2=O)C1 [Example 289, 1-cyclopropyl-3-(5,6-dichloropyridin-3-yl)-5-(2-(3-fluoro-3-methylazetidin-1-yl)-2-oxoethyl)-1H-pyrrolo[3,2-c]pyridin-4(5H)-one] | 120% |
| CCOCc1cn(CC(=O)N2CCC(F)C2)c(=O)c2c(-c3ccc(F)c(Cl)c3)csc12 (stereo not drawn) [Example 130, 3-(3-chloro-4-fluorophenyl)-7-(ethoxymethyl)-5-(2-(3-fluoropyrrolidin-1-yl)-2-oxoethyl)thieno[3,2-c]pyridin-4(5H)-one] | 42% |
| O=C(Cn1ccc2c(c(-c3ccc(F)c(Cl)c3)cn2CCF)c1=O)N1CCC(F)C1 (stereo not drawn) [Example 253, 3-(3-chloro-4-fluorophenyl)-1-(2-fluoroethyl)-5-(2-(3-fluorpyrrolidin-1-yl)-2-oxoethyl)-1H-pyrrolo[3,2-c]pyridin-4(5H)-one] | 66% |
| Cn1cc(-n2cc(-c3ccc(F)c(Cl)c3)c3c(=O)n(CC(=O)N4CCC(F)C4)ccc32)cn1 (stereo not drawn) [Example 235, 3-(3-chloro-4-fluorophenyl)-5-(2-(3-fluoropyrrolidin-1-yl)-2-oxoethyl)-1-(1-methyl-1H-pyrazol-4-yl)-1H-pyrrolo[3,2-c]pyridin-4(5H)-one] | 40% |
| O=C(Cn1ccc2[nH]cc(-c3ccc(Cl)c(C(F)(F)F)c3)c2c1=O)N1CCCC1 [Example 198, 3-(4-chloro-3-(trifluoromethyl)phenyl)-5-(2-oxo-2-(pyrrolidin-1-yl)ethyl)-1H-pyrrolo[3,2-c]pyridin-4(5H)-one] | 104% |
| O=C(Cn1ccc2scc(-c3ccc(Cl)c(Cl)c3)c2c1=O)N1CC[C@@H](F)C1 [Example 29, (R)-3-(3,4-dichlorophenyl)-5-(2-(3-fluoropyrrolidin-1-yl)-2-oxoethyl)thieno[3,2-c]pyridin-4(5H)-one] | 104% |
| O=C(Cn1ccc2scc(-c3ccc(Cl)c(C(F)(F)F)c3)c2c1=O)N1CCC(F)C1 (stereo not drawn) [Example 4, 3-(4-chloro-3-(trifluoromethyl)phenyl)-5-(2-(3-fluoropyrrolidin-1-yl)-2-oxoethyl)thieno[3,2-c]pyridin-4(5H)-one] | 107% |
| CCn1cc(-c2ccc(F)c(Cl)c2)c2c(=O)n(CC(=O)N3CC(F)(F)C3)cnc21 [Example 163, 5-(3-chloro-4-fluorophenyl)-3-(2-(3,3-difluoroazetidin-1-yl)-2-oxoethyl)-7-ethyl-3H-pyrrolo[2,3-d]pyrimidin-4(7H)-one] | 48% |
| O=C(Cn1ccc2c(c(-c3ccc(Cl)c(Cl)c3)cn2C2CC2)c1=O)N1CC(F)(CF)C1 [Example 293, 1-cyclopropyl-3-(3,4-dichlorophenyl)-5-(2-(3-fluoro-3-(fluoromethyl)azetidin-1-yl)-2-oxoethyl)-1,5-dihydro-4H-pyrrolo[3,2-c]pyridin-4-one] | 160% |

Other lines, results leading:

| Response Recovered (%) | Compound |
| --- | --- |
| 7.5% | Cc1cn(CC(=O)N2CCC(F)C2)c(=O)n2c(-c3ccc(F)c(Cl)c3)cnc12 (stereo not drawn) [Example 452, 3-(3-chloro-4-fluorophenyl)-6-(2-(3-fluoropyrrolidin-1-yl)-2-oxoethyl)-8 methylimidazo[1,2-c]pyrimidin-5(6H)-one] |
| 35% | O=C(Cn1cnc2csc(-c3ccc(F)c(Cl)c3)c2c1=O)N1CCCC1 [Example 359, 5-(3-chloro-4-fluorophenyl)-3-(2-oxo-2-(pyrrolidin-1-yl)ethyl)thieno[3,4-d]pyrimidin-4(3H)-one] |
| 15% | O=C(Cn1ncc2scc(-c3ccc(F)c(Cl)c3)c2c1=O)N1CCC(F)C1 (stereo not drawn) [Example 343, 3-(3-chloro-4-fluorophenyl)-5-(2-(3-fluoropyrrolidin-1-yl)-2-oxoethyl)theino[2,3-d]pyridazin-4(5H)-one] |
| 112% | Cc1cn(CC(=O)N2CCC(F)C2)c(=O)c2c(-c3ccc(F)c(Cl)c3)ccn12 (stereo not drawn) [Example 414, 8-(3-chloro-4-fluorophenyl)-2-(2-(3-fluoropyrrolidin-1-yl)-2-oxoethyl)-4-methylpyrrolo[1,2-a]pyrazin-1(2H)-one] |
| 68% | CC1(F)CN(C(=O)Cn2ccn3cnc(-c4ccc(F)c(C(F)(F)F)c4)c3c2=O)C1 [Example 446, 1-(4-fluoro-3-(trifluoromethyl)phenyl)-7-(2-(3-fluoro-3-methylazetidin-1-yl)-2-oxoethyl)imidazo[1,5-a]pyrazin-8(7H)-one] |
| 15% | O=C(Cn1cnc2csc(-c3ccc(Cl)c(F)c3)c2c1=O)N1CCCC1 [Example 367, 5-(4-chloro-3-fluorophenyl)-3-(2-oxo-2-(pyrrolidin-1-yl)ethyl)thieno[3,4-d]pyrimidin-4(3H)-one] |
| 34% | O=C(Cn1cnc2csc(-c3ccc(Cl)c(C(F)(F)F)c3)c2c1=O)N1CCCC1 [Example 366, 5-(4-chloro-3-(trifluoromethyl)phenyl)-3-(2-oxo-2-(pyrrolidin-1-yl)ethyl)thieno[3,4-d]pyrimidin-4(3H)-one] |
| 62% | O=C(Cn1ccn2ccc(-c3ccc(Cl)c(Cl)c3)c2c1=O)N1CCCC1 [Example 394, 8-(3,4-dichlorophenyl)-2-(2-oxo-2-(pyrrolidin-1-yl)ethyl)pyrrolo[1,2-a]pyrazin-1(2H)-one] |
| 58% | CC1(F)CN(C(=O)Cn2ccn3cnc(-c4ccc(Cl)c(Cl)c4)c3c2=O)C1 [Example 447, 1-(3,4-dichlorophenyl)-7-(2-(3-fluoro-3-methylazetidin-1-yl)-2-oxoethyl)imidazo[1,5-a]pyrazin-8(7H)-one] |
| 140% | CC1(F)CN(C(=O)Cn2ccn3ccc(-c4ccc(F)c(Cl)c4)c3c2=O)C1 [Example 397, 8-(3-chloro-4-fluorophenyl)-2-(2-(3-fluoro-3-methylazetidin-1-yl)-2-oxoethyl)pyrrolo[1,2-a]pyrazin-1(2H)-one] |
| 68% | O=C(Cn1ccn2c(C3CC3)nc(-c3ccc(Cl)c(Cl)c3)c2c1=O)N1CCC(F)C1 (stereo not drawn) [Example 433, 3-cyclopropyl-1-(3,4-dichlorophenyl)-7-(2-(3-fluoropyrrolidin-1-yl)-2-oxoethyl)imidazo[1,5-a]pyrazin-8(7H)-one] |
| 11% | O=C(Cn1cnc2csc(-c3ccc(C(F)(F)F)cc3)c2c1=O)N1CCCC1 [Example 356, 3-(2-oxo-2-(pyrrolidin-1-yl)ethyl)-5-(4-(trifluoromethyl)phenyl)thieno[3,4-d]pyrimidin-4(3H)-one] |
